Laboratory results published in ChEMBL document CHEMBL5291721, “A preclinical secondary pharmacology resource illuminates target-adverse drug reaction associations of marketed drugs” (Nat Commun, 2023).

Legend:
[1] = target: T1, Alpha-1A adrenergic receptor (Homo sapiens, UniProt P35348)
T1 sequence (P35348 whole entry): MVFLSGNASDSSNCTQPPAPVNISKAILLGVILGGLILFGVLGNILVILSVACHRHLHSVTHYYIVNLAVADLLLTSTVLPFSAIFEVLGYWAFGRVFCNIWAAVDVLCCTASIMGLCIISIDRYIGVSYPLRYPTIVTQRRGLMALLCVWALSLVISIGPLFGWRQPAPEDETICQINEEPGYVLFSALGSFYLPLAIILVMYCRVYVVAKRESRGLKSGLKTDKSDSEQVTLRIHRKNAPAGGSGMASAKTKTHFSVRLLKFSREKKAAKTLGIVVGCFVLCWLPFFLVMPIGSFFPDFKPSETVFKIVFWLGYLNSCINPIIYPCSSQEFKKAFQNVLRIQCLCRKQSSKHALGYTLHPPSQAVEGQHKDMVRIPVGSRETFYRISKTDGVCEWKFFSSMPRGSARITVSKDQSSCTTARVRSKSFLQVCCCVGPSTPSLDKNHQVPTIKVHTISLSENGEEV

[2] = target: Growth hormone secretagogue receptor type 1 (Homo sapiens, UniProt Q92847)
[3] = target: T2, 5-hydroxytryptamine receptor 2A (Homo sapiens, UniProt P28223); assay type: functional, cell-based
[4] = target: Gamma-aminobutyric acid receptor subunit alpha-1 (Rattus norvegicus, UniProt P62813); assay type: functional
[5] = target: Beta-2 adrenergic receptor (Homo sapiens, UniProt P07550); assay type: functional, cell-based
[6] = target: T3, Cannabinoid receptor 1 (Homo sapiens, UniProt P21554); assay type: functional, cell-based
[7] = target: Kappa-type opioid receptor (Homo sapiens, UniProt P41145)
[8] = target: Mu-type opioid receptor (Homo sapiens, UniProt P35372)
[9] = target: T4, 5-hydroxytryptamine receptor 1A (Homo sapiens, UniProt P08908); assay type: functional, cell-based
T4 sequence (P08908 whole entry): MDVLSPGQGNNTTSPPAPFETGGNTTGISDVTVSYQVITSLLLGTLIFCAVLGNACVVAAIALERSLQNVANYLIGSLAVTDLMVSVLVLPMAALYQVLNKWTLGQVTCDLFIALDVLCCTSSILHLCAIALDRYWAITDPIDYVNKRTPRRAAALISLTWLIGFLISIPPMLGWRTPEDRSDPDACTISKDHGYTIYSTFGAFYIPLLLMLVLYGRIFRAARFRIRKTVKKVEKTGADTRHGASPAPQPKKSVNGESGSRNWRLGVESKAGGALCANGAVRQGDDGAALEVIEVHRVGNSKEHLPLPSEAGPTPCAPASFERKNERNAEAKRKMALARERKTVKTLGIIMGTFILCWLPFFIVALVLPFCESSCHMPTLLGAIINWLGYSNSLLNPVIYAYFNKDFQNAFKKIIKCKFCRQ

[10] = target: T2, 5-hydroxytryptamine receptor 2A; assay type: functional, cell-based; remark: listed apart in the source
[11] = target: T3, Cannabinoid receptor 1
[12] = target: Melanocortin receptor 4 (Homo sapiens, UniProt P32245)
[13] = target: Melanocortin receptor 3 (Homo sapiens, UniProt P41968)
[14] = target: T5, Progesterone receptor (Homo sapiens, UniProt P06401); assay type: functional
T5 sequence (P06401 whole entry): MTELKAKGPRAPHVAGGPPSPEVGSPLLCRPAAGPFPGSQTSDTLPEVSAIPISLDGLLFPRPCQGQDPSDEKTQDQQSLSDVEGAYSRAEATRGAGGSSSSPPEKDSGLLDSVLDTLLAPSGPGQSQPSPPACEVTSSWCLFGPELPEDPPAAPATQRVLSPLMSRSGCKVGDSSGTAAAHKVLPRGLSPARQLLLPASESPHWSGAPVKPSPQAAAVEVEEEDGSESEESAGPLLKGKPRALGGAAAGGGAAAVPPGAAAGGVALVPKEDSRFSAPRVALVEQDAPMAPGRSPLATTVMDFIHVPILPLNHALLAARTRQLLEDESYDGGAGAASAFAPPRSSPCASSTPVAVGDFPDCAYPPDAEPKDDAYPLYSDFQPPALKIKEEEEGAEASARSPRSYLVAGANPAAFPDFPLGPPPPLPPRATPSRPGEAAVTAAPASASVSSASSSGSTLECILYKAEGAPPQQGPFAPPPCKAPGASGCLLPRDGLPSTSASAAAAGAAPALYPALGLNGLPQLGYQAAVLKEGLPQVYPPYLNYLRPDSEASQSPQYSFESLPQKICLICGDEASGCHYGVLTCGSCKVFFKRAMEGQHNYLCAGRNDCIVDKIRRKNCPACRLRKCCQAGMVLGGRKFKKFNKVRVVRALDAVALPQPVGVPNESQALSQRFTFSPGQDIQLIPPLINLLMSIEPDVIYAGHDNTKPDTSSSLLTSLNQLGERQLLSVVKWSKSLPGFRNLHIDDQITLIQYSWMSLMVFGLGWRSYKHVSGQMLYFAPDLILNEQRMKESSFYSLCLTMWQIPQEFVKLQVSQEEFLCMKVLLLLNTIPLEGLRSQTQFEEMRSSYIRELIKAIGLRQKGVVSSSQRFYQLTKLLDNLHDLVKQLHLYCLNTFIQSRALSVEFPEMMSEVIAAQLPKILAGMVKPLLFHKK

[15] = target: T3, Cannabinoid receptor 1; assay type: functional, cell-based; remark: listed apart in the source
Further: assay procedure not described here.

T2 sequence (P28223 whole entry): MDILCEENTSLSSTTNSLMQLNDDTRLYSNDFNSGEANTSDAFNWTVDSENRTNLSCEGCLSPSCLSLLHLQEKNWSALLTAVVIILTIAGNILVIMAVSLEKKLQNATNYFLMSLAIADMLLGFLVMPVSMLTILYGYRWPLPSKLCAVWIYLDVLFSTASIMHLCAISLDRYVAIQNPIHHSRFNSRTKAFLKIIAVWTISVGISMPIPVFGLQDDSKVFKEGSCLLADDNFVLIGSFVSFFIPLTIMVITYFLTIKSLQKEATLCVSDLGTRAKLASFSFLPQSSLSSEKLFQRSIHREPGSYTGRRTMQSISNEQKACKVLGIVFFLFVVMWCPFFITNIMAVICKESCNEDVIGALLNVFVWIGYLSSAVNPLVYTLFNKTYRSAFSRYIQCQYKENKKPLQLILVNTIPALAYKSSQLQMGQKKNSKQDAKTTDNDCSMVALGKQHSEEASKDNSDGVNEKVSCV
T3 sequence (P21554 whole entry): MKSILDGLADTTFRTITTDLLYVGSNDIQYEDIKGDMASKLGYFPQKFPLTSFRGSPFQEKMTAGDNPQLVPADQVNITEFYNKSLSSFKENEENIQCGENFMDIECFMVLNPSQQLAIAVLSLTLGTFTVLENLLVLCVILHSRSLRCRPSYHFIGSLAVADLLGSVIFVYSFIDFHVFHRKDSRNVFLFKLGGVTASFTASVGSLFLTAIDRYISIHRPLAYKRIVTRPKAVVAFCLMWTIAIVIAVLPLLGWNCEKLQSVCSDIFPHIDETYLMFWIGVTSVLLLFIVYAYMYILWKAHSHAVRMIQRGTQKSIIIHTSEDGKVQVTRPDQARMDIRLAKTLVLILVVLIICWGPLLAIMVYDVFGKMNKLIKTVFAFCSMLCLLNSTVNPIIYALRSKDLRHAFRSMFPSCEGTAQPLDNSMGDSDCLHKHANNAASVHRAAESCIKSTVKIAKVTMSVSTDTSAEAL
Melanocortin receptor 4, sequence (P32245 whole entry): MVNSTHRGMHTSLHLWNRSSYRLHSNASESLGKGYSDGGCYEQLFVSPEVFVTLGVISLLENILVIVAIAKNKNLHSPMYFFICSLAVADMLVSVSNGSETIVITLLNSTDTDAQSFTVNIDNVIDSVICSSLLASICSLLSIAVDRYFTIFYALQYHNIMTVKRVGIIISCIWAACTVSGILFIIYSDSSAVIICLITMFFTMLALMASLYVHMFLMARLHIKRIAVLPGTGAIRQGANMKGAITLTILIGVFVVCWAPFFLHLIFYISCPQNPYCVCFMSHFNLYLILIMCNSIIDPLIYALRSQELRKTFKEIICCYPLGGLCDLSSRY
Kappa-type opioid receptor, sequence (P41145 whole entry): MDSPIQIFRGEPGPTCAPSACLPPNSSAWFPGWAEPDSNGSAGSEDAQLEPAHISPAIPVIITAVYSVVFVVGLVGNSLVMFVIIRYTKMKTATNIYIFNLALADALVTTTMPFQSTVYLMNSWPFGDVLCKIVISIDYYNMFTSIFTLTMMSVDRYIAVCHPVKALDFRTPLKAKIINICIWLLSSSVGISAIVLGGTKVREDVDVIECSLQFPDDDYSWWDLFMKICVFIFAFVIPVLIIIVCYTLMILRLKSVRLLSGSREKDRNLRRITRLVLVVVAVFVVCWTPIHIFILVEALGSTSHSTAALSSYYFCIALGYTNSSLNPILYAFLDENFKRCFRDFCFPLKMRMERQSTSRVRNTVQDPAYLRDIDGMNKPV
Gamma-aminobutyric acid receptor subunit alpha-1, sequence (P62813 whole entry): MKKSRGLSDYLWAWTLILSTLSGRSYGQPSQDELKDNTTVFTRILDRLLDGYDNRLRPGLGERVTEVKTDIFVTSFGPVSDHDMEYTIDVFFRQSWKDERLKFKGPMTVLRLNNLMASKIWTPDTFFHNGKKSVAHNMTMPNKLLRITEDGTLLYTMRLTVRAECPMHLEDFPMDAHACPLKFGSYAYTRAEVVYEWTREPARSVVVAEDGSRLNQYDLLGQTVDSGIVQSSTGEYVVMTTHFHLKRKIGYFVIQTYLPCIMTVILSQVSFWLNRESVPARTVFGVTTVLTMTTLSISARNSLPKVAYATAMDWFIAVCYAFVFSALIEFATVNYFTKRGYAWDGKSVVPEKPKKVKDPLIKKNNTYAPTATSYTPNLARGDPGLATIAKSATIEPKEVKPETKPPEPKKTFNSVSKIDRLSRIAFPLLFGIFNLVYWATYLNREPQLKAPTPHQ
Beta-2 adrenergic receptor, sequence (P07550 whole entry): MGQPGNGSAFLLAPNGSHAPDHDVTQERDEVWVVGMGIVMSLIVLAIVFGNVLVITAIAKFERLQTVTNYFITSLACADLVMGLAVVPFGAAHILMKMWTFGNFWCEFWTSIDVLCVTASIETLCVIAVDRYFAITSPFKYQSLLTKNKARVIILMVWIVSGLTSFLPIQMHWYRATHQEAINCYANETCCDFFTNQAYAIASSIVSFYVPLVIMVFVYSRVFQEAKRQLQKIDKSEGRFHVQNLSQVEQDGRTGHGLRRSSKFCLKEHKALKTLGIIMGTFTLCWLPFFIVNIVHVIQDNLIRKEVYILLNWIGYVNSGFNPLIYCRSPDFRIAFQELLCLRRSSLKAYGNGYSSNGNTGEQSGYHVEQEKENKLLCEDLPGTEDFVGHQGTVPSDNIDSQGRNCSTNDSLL
Melanocortin receptor 3, sequence (P41968 whole entry): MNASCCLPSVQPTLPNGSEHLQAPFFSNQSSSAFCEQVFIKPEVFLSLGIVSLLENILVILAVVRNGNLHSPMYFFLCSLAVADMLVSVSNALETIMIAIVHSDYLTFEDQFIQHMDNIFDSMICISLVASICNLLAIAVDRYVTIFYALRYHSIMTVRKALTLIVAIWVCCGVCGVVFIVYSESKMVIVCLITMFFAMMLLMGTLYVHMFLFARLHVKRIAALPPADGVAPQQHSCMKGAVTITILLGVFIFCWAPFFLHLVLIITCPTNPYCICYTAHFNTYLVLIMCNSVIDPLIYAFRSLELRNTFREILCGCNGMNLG
Growth hormone secretagogue receptor type 1, sequence (Q92847 whole entry): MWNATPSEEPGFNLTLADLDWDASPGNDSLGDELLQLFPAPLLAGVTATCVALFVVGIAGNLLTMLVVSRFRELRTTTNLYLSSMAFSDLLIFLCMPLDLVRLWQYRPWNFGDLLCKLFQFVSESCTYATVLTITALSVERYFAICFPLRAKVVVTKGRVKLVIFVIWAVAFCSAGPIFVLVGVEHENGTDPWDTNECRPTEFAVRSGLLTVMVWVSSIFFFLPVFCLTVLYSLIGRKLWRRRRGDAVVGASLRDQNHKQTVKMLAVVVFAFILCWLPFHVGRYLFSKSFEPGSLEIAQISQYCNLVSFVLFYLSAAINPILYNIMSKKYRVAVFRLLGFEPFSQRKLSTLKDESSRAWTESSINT
Mu-type opioid receptor, sequence (P35372 whole entry): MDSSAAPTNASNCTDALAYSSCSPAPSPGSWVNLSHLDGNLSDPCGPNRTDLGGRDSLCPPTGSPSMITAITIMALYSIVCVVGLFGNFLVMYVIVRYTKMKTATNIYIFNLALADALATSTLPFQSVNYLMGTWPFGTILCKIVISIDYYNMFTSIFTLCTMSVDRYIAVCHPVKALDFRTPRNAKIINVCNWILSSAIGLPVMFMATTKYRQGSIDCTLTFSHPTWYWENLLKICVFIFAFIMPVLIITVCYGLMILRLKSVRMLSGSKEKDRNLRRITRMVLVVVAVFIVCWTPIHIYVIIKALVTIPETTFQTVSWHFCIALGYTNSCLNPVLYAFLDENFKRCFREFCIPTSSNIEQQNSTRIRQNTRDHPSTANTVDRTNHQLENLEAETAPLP

O=C1CN=C(c2ccccn2)c2cc(Br)ccc2N1 [BROMAZEPAM]
AC50 [1]: > 10 µM
AC50 [2]: > 10 µM
AC50 [3]: > 10 µM
AC50 [4]: 0.11 µM
AC50 [5]: > 30 µM
AC50 [6]: > 30 µM
AC50 [7]: > 10 µM
AC50 [8]: > 30 µM
AC50 [9]: > 10 µM
AC50 [10]: > 10 µM
AC50 [11]: > 10 µM
AC50 [12]: > 10 µM
AC50 [13]: > 10 µM
AC50 [14]: > 10 µM

CCCCCC(=O)O[C@]1(C(C)=O)CC[C@H]2[C@@H]3CCC4=CC(=O)CC[C@]4(C)[C@H]3CC[C@@]21C [HYDROXYPROGESTERONE CAPROATE]
AC50 [1]: > 30 µM
AC50 [2]: > 30 µM
AC50 [3]: > 30 µM
AC50 [4]: > 30 µM
AC50 [5]: > 30 µM
AC50 [6]: > 30 µM
AC50 [15]: > 30 µM
AC50 [7]: > 30 µM
AC50 [10]: > 30 µM
AC50 [11]: > 30 µM
AC50 [12]: > 30 µM
AC50 [13]: > 30 µM
